target: T1, KSP motor domain (Homo sapiens, UniProt P52732); assay: biochemical; conditions: KSP inhibitory activity, end-point assay; class symbols (Table 1); read-out: IC50
T1 sequence (P52732 18-359 limits assumed): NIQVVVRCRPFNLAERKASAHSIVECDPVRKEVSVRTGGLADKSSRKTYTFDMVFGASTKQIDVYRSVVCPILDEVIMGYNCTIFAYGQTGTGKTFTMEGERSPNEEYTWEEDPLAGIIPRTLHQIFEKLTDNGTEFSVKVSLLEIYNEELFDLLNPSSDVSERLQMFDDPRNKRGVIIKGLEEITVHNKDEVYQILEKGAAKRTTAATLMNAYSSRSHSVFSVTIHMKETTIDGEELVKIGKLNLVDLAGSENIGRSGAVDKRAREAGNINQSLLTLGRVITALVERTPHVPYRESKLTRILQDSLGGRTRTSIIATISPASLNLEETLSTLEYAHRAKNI

How did the IC50 turn out when `CC(C)(C)C1CCc2nc3sc(C(=O)NC(CN)c4cccc(NC(=O)c5cnccn5)c4)cc3cc2C1` (stereo not shown) [Example 227, 6-tert-Butyl-5,6,7,8-tetrahydrothieno[2,3-b]quinoline-2-carboxylic acid (2-amino-1-{3-[(pyrazine-2-carbonyl)amino]phenyl}ethyl)amide] was run?
The IC50 was less than 100 nM.

For `CC(C)(C)[C@@H]1CCc2nc3sc(C(=O)N[C@H](CN)c4cccc(NC(=O)c5cnc6ccccc6n5)c4)cc3cc2C1` [Example 228], which IC50 is on record?
The IC50 was less than 100 nM.

With `Cc1cc(C(=O)Nc2cccc([C@@H](CN)NC(=O)c3cc4cc5c(nc4s3)CC[C@@H](C(C)(C)C)C5)c2)no1` [Example 229] as the molecule, how does the IC50 read?
The IC50 was less than 100 nM.

With `Cc1onc(-c2ccccc2)c1C(=O)Nc1cccc([C@@H](CN)NC(=O)c2cc3cc4c(nc3s2)CC[C@@H](C(C)(C)C)C4)c1` [Example 230] as the molecule, how does the IC50 read?
The IC50 was 100 to 1000 nM.

`CC(C)(C)[C@@H]1CCc2nc3sc(C(=O)N[C@H](CN)c4cccc(NC(=O)c5ccno5)c4)cc3cc2C1` [Example 231, 6(R)-tert-butyl-5,6,7,8-tetrahydro-thieno[2,3-b]quinoline-2-carboxylic acid (2-amino-1(S)-{3-[(isoxazole-5-carbonyl)-amino]-phenyl}-ethyl)-amide] was tested. Which IC50 did it give?
Its IC50 is less than 100 nM.

For `CC(C)(C)[C@@H]1CCc2nc3sc(C(=O)N[C@H](CN)c4cccc(NC(=O)c5ccon5)c4)cc3cc2C1` [Example 232], which IC50 is on record?
Its IC50 is less than 100 nM.

How did the IC50 turn out when `Cc1oncc1C(=O)Nc1cccc([C@@H](CN)NC(=O)c2cc3cc4c(nc3s2)CC[C@@H](C(C)(C)C)C4)c1` [Example 233] was run?
The IC50 was less than 100 nM.

How did the IC50 turn out when `CC(C)(C)[C@@H]1CCc2nc3sc(C(=O)N[C@H](CN)c4cccc(NC(=O)c5cc(-c6ccccc6)on5)c4)cc3cc2C1` [Example 234] was run?
Its IC50 is less than 100 nM.

Which IC50 does the source give for `CC(C)(C)[C@@H]1CCc2nc3sc(C(=O)N[C@H](CN)c4cccc(NC(=O)c5ccns5)c4)cc3cc2C1` [Example 235] here?
The IC50 was less than 100 nM.

Which IC50 does the source give for `CC(C)(C)[C@@H]1CCc2nc3sc(C(=O)N[C@H](CN)c4cccc(NC(=O)c5cc[nH]n5)c4)cc3cc2C1` [Example 236] here?
The IC50 was less than 100 nM.

`CC(C)(C)[C@@H]1CCc2nc3sc(C(=O)N[C@H](CN)c4cccc(NC(=O)c5cn[nH]c5)c4)cc3cc2C1` [Example 237] was tested. Which IC50 did it give?
The IC50 was less than 100 nM.

For `Cn1nccc1C(=O)Nc1cccc([C@@H](CN)NC(=O)c2cc3cc4c(nc3s2)CC[C@@H](C(C)(C)C)C4)c1` [Example 238], which IC50 is on record?
The IC50 was less than 100 nM.

With `Cn1ccc(C(=O)Nc2cccc([C@@H](CN)NC(=O)c3cc4cc5c(nc4s3)CC[C@@H](C(C)(C)C)C5)c2)n1` [Example 239] as the molecule, how does the IC50 read?
The IC50 was less than 100 nM.

`Cn1cc(C(=O)Nc2cccc([C@@H](CN)NC(=O)c3cc4cc5c(nc4s3)CC[C@@H](C(C)(C)C)C5)c2)cn1` [Example 240] was tested. Which IC50 did it give?
Its IC50 is less than 100 nM.

`CC(C)(C)[C@@H]1CCc2nc3sc(C(=O)N[C@H](CN)c4cccc(NC(=O)c5ccn(-c6ccccc6)n5)c4)cc3cc2C1` [Example 241] was tested. Which IC50 did it give?
Its IC50 is less than 100 nM.

How did the IC50 turn out when `Cc1cc(C(=O)Nc2cccc([C@@H](CN)NC(=O)c3cc4cc5c(nc4s3)CC[C@@H](C(C)(C)C)C5)c2)n[nH]1` [Example 242] was run?
Its IC50 is less than 100 nM.

`Cc1[nH]ncc1C(=O)Nc1cccc([C@@H](CN)NC(=O)c2cc3cc4c(nc3s2)CC[C@@H](C(C)(C)C)C4)c1` [Example 243] was tested. Which IC50 did it give?
Its IC50 is less than 100 nM.

How did the IC50 turn out when `Cc1cc(C(=O)Nc2cccc([C@@H](CN)NC(=O)c3cc4cc5c(nc4s3)CC[C@@H](C(C)(C)C)C5)c2)nn1C` [Example 244] was run?
The IC50 was less than 100 nM.

How did the IC50 turn out when `Cn1ncc(C(=O)Nc2cccc([C@@H](CN)NC(=O)c3cc4cc5c(nc4s3)CC[C@@H](C(C)(C)C)C5)c2)c1C(F)(F)F` [Example 245] was run?
The IC50 was less than 100 nM.

For `Cn1nc(C(F)(F)F)c(C(=O)Nc2cccc([C@@H](CN)NC(=O)c3cc4cc5c(nc4s3)CC[C@@H](C(C)(C)C)C5)c2)c1Cl` [Example 246], which IC50 is on record?
The IC50 was less than 100 nM.

With `CC(C)(C)[C@@H]1CCc2nc3sc(C(=O)N[C@H](CN)c4cccc(NC(=O)c5ncc[nH]5)c4)cc3cc2C1` [Example 247] as the molecule, how does the IC50 read?
Its IC50 is less than 100 nM.

`CC(C)(C)[C@@H]1CCc2nc3sc(C(=O)N[C@H](CN)c4cccc(NC(=O)c5c[nH]cn5)c4)cc3cc2C1` [Example 248] was tested. Which IC50 did it give?
Its IC50 is less than 100 nM.

same assay, conditions: exact IC50 values, end-point assay (Table 2); read-out: IC50

Which IC50 does the source give for `CC(C)(C)C1CCc2nc3sc(C(=O)NC(CN)c4cccc(NC(=O)c5cnccn5)c4)cc3cc2C1` (stereo not shown) [Example 227, 6-tert-Butyl-5,6,7,8-tetrahydrothieno[2,3-b]quinoline-2-carboxylic acid (2-amino-1-{3-[(pyrazine-2-carbonyl)amino]phenyl}ethyl)amide] here?
Its IC50 is 21 nM.

With `CC(C)(C)[C@@H]1CCc2nc3sc(C(=O)N[C@H](CN)c4cccc(NC(=O)c5ccns5)c4)cc3cc2C1` [Example 235] as the molecule, how does the IC50 read?
The IC50 was 23 nM.

For `CC(C)(C)[C@@H]1CCc2nc3sc(C(=O)N[C@H](CN)c4cccc(NC(=O)c5cn[nH]c5)c4)cc3cc2C1` [Example 237], which IC50 is on record?
Its IC50 is 10 nM.
